Measured values reported in ChEMBL document CHEMBL5705899 (Biochem J, 2014).
The source made the active and inactive calls. The rule behind the calls is not given here.

Key:
[1] = molecular target: Calcium/calmodulin-dependent protein kinase kinase 2 (Homo sapiens) (UniProt Q96RR4); test: Inhibition of recombinant human N-terminal GST-tagged CAMKKbeta (1 to 541 residues) expressed in Escherichia coli assessed as remaining activity at 1 uM using DGEFLRTSCGSPNYAARRR as substrate incubated for 30 mins in presence of [gamma-33P]ATP by filter binding method relative to control
[2] = molecular target: BDNF/NT-3 growth factors receptor (Homo sapiens) (UniProt Q16620); test: Inhibition of human TRKB at 1 uM using polyEY as substrate in presence of 33P-ATP by ProQinase assay
[3] = molecular target: MAP kinase-activated protein kinase 2 (Homo sapiens) (UniProt P49137); test: Inhibition of human MAPKAPK2 at 1 uM using RBER-CHKtide as substrate in presence of 33P-ATP by ProQinase assay
[4] = molecular target: Lymphokine-activated killer T-cell-originated protein kinase (Homo sapiens) (UniProt Q96KB5); test: Inhibition of human PBK at 1 uM using histon H1 as substrate in presence of 33P-ATP by ProQinase assay
Sequence of Lymphokine-activated killer T-cell-originated protein kinase (Homo sapiens) (Q96KB5 whole entry, the tested form may be a part): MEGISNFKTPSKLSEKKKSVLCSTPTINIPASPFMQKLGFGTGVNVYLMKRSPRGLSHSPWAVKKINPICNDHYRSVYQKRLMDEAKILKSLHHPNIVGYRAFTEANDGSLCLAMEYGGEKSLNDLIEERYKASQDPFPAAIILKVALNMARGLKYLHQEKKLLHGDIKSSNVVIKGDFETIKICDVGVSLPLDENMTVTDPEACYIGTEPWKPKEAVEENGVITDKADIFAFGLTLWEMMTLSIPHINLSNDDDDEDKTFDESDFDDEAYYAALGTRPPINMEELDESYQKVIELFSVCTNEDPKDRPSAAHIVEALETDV

[5] = molecular target: LKB1-STRAD-MO25 complex (Homo sapiens) (UniProt Q15831+Q7RTN6+Q9Y376); test: Inhibition of recombinant human N-terminal His6-tagged LKB1 (1 to 433 residues)/MO25 (1 to 341 residues)/STRAD (1 to 431 residues) expressed in baculovirus infected Sf21 cells assessed as remaining activity at 1 uM using LSNLYHQGKFLQTFCGSPLYRRR as substrate incubated for 30 mins in presence of [gamma-33P]ATP by filter binding method relative to control
[6] = molecular target: Interferon-induced, double-stranded RNA-activated protein kinase (Homo sapiens) (UniProt P19525); test: Inhibition of human EIF2AK2 at 1 uM using RB-CTF as substrate in presence of 33P-ATP by ProQinase assay
[7] = molecular target: Tyrosine-protein kinase Srms (Homo sapiens) (UniProt Q9H3Y6); test: Inhibition of human SRMS at 1 uM using PolyEY as substrate in presence of 33P-ATP by ProQinase assay
[8] = molecular target: Platelet-derived growth factor receptor alpha (Homo sapiens) (UniProt P16234); test: (§1) Inhibition of recombinant human PDGFRalpha (551 to 10589 residues) expressed in baculovirus infected Sf21 cells assessed as remaining activity at 1 uM using KKKKEEIYFFFG as substrate incubated for 30 mins in presence of [gamma-33P]ATP by filter binding method relative to control
[9] = molecular target: Casein kinase I isoform gamma-1 (Homo sapiens) (UniProt Q9HCP0); test: Inhibition of human CK1gamma1 at 1 uM using casein as substrate in presence of 33P-ATP by ProQinase assay
[10] = molecular target: Serine/threonine-protein kinase pim-1 (Homo sapiens) (UniProt P11309); test: Inhibition of human PIM1 at 1 uM using RBER-GSK3 as substrate in presence of 33P-ATP by ProQinase assay
Sequence of Serine/threonine-protein kinase pim-1 (Homo sapiens) (P11309 whole entry, looked up): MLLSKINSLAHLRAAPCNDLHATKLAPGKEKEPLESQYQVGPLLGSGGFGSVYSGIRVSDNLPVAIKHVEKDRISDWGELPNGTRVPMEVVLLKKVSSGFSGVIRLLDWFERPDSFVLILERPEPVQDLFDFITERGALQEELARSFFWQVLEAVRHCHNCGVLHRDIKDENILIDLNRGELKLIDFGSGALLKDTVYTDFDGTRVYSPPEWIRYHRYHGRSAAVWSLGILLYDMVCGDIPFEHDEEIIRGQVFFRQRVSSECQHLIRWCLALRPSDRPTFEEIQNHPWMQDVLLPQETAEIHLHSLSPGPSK

Homo sapiens [11] = species: Homo sapiens; test: Inhibition of human CDK1/CycA2 at 1 uM using RBER-CHKtide as substrate in presence of 33P-ATP by ProQinase assay
[12] = molecular target: Serine/threonine-protein kinase PAK 6 (Homo sapiens) (UniProt Q9NQU5); test: Inhibition of human PAK6 at 1 uM using bio-4xCHKT as substrate in presence of 33P-ATP by ProQinase assay
[13] = molecular target: Mitogen-activated protein kinase 11 (Homo sapiens) (UniProt Q15759); test: Inhibition of recombinant human N-terminal GST-tagged P38beta (1 to 364 residues) expressed in Escherichia coli assessed as remaining activity at 1 uM using MBP as substrate incubated for 30 mins in presence of [gamma-33P]ATP by filter binding method relative to control
[14] = molecular target: Death-associated protein kinase 2 (Homo sapiens) (UniProt Q9UIK4); test: Inhibition of human DAPK2 at 1 uM using RB-S6P as substrate in presence of 33P-ATP by ProQinase assay
[15] = molecular target: Serine/threonine-protein kinase MARK1 (Homo sapiens) (UniProt Q9P0L2); test: as §1, with “N-terminal His6-tagged MARK1 (2” for “PDGFRalpha (551”, “795” for “10589”, “KKKVSRSGLYRSPSMPENLNRPR” for “KKKKEEIYFFFG”
[16] = molecular target: Myosin light chain kinase, smooth muscle (Homo sapiens) (UniProt Q15746); test: Inhibition of human MYLK at 1 uM using RB-S6P as substrate in presence of 33P-ATP by ProQinase assay
Sequence of Myosin light chain kinase, smooth muscle (Homo sapiens) (Q15746 whole entry, the tested form may be a part): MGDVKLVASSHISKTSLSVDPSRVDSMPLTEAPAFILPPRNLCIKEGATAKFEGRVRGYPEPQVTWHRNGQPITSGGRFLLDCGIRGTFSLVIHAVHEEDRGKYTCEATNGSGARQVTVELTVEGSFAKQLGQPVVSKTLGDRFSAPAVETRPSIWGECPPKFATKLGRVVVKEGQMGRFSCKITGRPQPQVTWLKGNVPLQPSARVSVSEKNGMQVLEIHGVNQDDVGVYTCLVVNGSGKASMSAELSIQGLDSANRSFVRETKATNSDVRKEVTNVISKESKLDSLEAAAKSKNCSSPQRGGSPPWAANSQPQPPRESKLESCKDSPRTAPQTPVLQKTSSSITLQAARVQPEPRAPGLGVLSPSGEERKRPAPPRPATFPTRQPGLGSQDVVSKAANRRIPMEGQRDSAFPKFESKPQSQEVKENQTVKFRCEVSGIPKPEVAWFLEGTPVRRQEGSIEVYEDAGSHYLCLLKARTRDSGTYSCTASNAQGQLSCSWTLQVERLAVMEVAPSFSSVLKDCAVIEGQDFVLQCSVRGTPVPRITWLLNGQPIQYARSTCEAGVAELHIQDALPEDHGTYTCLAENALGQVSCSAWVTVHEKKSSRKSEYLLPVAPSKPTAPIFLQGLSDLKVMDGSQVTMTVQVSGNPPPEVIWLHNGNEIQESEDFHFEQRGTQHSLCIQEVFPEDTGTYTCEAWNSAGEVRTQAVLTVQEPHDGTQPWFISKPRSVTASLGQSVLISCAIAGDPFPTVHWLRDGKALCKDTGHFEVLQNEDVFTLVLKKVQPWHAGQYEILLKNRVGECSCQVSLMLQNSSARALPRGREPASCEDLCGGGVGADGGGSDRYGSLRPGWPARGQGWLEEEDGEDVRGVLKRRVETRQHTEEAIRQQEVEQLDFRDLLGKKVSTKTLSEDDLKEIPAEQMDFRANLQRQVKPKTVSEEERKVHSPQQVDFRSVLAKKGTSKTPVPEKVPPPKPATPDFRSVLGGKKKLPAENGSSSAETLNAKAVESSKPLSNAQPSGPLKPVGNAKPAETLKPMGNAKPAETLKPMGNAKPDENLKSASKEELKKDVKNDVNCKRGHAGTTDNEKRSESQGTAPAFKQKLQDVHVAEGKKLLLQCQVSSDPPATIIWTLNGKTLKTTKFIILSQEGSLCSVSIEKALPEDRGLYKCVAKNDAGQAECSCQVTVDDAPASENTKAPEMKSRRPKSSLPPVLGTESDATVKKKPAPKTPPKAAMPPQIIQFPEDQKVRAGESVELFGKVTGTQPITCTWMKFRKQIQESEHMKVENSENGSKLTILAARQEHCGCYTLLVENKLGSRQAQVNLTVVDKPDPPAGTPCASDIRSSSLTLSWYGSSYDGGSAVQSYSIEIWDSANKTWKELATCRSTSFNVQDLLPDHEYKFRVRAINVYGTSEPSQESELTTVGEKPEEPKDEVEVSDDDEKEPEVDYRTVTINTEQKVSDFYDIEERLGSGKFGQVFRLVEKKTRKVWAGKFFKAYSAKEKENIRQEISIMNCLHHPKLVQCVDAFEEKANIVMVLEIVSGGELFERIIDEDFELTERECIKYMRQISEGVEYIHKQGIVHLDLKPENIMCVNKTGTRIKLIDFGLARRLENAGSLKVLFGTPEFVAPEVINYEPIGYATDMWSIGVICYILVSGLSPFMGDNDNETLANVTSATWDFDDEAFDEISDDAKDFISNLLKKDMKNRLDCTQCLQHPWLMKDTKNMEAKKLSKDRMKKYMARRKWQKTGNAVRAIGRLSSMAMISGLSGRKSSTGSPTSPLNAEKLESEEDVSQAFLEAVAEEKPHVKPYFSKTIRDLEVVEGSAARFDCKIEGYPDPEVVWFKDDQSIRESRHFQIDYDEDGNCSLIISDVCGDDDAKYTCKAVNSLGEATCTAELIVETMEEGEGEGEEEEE

[17] = molecular target: Fibroblast growth factor receptor 1 (Homo sapiens) (UniProt P11362); test: Inhibition of recombinant human N-terminal His6-tagged FGFR1 (400 to 820 residues) expressed in baculovirus infected Sf21 cells assessed as remaining activity at 1 uM using Poly(Glu,Tyr) as substrate incubated for 30 mins in presence of [gamma-33P]ATP by filter binding method relative to control
[18] = molecular target: Ephrin type-B receptor 4 (Homo sapiens) (UniProt P54760); test: Inhibition of recombinant human N-terminal His6-tagged EPHB4 (561 to 987 residues) expressed in baculovirus infected Sf21 cells assessed as remaining activity at 1 uM using Poly (Glu,Tyr) as substrate incubated for 30 mins in presence of [gamma-33P]ATP by filter binding method relative to control
Sequence of Ephrin type-B receptor 4 (Homo sapiens) (P54760 whole entry, the tested form may be a part): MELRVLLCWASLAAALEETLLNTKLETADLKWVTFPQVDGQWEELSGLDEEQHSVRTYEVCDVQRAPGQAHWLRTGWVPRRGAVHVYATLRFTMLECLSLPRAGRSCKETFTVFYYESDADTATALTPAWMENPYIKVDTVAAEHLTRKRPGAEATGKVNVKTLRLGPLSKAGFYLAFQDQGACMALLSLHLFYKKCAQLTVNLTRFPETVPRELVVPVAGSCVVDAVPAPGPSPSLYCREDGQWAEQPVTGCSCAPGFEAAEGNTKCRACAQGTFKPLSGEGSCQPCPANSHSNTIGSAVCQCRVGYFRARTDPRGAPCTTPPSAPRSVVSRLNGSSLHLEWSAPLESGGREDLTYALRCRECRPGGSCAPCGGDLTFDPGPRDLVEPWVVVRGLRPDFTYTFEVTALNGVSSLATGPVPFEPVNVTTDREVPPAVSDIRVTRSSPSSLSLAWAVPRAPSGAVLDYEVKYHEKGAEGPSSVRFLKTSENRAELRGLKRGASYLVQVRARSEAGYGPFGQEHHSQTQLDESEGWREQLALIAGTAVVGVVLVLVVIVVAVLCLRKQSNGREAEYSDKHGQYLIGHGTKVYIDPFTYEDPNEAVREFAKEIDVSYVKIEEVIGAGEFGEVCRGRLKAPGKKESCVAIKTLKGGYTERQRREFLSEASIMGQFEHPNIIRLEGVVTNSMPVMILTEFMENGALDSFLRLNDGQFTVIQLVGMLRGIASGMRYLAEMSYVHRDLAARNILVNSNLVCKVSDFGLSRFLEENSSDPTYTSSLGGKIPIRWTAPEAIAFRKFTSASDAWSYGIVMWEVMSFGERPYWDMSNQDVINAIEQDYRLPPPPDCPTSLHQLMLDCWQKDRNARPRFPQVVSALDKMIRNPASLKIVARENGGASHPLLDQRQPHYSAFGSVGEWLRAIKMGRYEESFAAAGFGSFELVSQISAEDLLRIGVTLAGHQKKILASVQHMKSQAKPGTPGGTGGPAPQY

[19] = molecular target: Homeodomain-interacting protein kinase 3 (Homo sapiens) (UniProt Q9H422); test: Inhibition of recombinant human N-terminal GST-tagged HIPK3 (161 to 562 residues) expressed in Escherichia coli assessed as remaining activity at 1 uM using MBP as substrate incubated for 30 mins in presence of [gamma-33P]ATP by filter binding method relative to control
Sequence of Homeodomain-interacting protein kinase 3 (Homo sapiens) (Q9H422 whole entry, looked up, the tested form may be a part): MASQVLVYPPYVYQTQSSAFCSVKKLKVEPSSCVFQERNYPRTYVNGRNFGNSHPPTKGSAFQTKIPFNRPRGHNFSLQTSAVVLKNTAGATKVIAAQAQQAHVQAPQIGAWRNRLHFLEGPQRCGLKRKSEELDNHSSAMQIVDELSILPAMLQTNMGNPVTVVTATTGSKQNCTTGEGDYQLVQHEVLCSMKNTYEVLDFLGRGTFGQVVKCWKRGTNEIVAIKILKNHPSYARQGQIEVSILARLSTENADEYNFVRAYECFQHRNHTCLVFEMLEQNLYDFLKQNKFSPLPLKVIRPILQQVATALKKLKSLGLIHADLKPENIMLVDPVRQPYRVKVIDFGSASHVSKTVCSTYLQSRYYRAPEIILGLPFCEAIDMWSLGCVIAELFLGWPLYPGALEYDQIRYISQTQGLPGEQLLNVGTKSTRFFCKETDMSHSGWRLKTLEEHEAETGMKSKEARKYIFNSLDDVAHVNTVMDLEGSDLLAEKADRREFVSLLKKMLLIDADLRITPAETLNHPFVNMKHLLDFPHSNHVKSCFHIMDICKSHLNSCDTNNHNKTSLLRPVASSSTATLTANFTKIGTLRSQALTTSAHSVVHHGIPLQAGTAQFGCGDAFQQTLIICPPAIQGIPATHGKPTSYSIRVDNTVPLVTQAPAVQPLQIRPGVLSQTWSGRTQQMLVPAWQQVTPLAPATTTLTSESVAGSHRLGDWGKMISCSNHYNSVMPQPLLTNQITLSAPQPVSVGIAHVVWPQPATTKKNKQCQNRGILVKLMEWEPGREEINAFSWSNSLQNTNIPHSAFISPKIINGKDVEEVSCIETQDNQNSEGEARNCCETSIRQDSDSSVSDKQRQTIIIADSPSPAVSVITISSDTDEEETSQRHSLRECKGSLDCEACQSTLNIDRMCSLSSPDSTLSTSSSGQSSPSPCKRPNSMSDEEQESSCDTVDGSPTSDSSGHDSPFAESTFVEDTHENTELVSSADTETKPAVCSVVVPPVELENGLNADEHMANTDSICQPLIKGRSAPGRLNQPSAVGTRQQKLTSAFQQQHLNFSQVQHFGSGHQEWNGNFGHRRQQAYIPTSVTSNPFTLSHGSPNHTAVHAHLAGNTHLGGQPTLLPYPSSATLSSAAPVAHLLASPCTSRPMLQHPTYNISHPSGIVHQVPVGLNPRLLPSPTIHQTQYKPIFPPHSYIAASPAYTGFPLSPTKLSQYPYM

Homo sapiens [20] = species: Homo sapiens; test: Inhibition of recombinant human N-terminal His6-tagged PI3Kalpha E542K mutant (2 to 1068 residues)/p85A (1 to 724 residues) expressed in baculovirus expression system at 1 uM using diC8 PIP2 as substrate incubated for 80 mins by ADP-Glo assay
[21] = molecular target: Serine/threonine-protein kinase 16 (Homo sapiens) (UniProt O75716); test: Inhibition of recombinant human N-terminal GST-tagged MPSK1 (1 to 305 residues) expressed in Escherichia coli assessed as remaining activity at 1 uM using RRHYYYDTHTNTYYLRTFGHNTRR as substrate incubated for 30 mins in presence of [gamma-33P]ATP by filter binding method relative to control
Sequence of Serine/threonine-protein kinase 16 (Homo sapiens) (O75716 whole entry, the tested form may be a part): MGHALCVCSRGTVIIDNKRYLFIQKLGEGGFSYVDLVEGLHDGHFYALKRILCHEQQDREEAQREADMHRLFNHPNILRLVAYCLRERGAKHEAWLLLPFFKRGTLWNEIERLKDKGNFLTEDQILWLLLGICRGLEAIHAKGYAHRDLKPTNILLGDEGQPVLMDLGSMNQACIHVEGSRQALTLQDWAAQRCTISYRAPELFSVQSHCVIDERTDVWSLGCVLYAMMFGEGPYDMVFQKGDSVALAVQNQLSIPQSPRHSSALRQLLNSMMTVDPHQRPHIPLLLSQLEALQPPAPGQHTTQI

[22] = molecular target: AMPK alpha1/beta2/gamma1 (Homo sapiens) (UniProt O43741+P54619+Q13131); test: Inhibition of recombinant N-terminal His6-tagged human AMPKalpha1 (11 to 559 residues)/AMPKbeta2 (1 to 272 residues)/AMPKgamma1 (1 to 331 residues) expressed in baculovirus infected Sf21 cells assessed as remaining activity at 1 uM using SAMS as substrate incubated for 30 mins in presence of [gamma-33P]ATP relative to control
[23] = molecular target: Activin receptor type-2B (Homo sapiens) (UniProt Q13705); test: Inhibition of human ACVR2B at 1 uM using RB-CTF as substrate in presence of 33P-ATP by ProQinase assay
[24] = molecular target: Phosphatidylinositol 3-kinase C2 domain-containing subunit gamma (Homo sapiens) (UniProt O75747); test: Inhibition of PI3KC2gamma (unknown origin) at 1 uM

Structure (SMILES): CC(C)(O)CNc1ncc(-c2ccnc(Nc3ccnc(Cl)c3)n2)c(CC2CC2)n1
- Activity [1]: 108%
- inhibition [2]: inactive
- inhibition [3]: inactive
- inhibition [4]: inactive
- Activity [5]: 106%
- inhibition [6]: inactive
- inhibition [7]: inactive
- Activity [8]: 121%
- inhibition [9]: inactive
- inhibition [10]: inactive
- inhibition (Homo sapiens [11]): inactive
- inhibition [12]: inactive
- Activity [13]: 115%
- inhibition [14]: inactive
- Activity [15]: 114%
- inhibition [16]: inactive
- Activity [17]: 95%
- Activity [18]: 106%
- Activity [19]: 117%
- inhibition (Homo sapiens [20]): inactive
- Activity [21]: 118%
- Activity [22]: 96%
- inhibition [23]: inactive
- inhibition [24]: inactive
